For two compounds, IC50 results are on record in patent US9790209B2, “Kinase inhibitors” (Respivert Limited, priority 2012, dated 2017).

The structures appear in SMILES notation.

The target in one assay is p38 MAPKα (Homo sapiens (Human), UniProt Q16539). Briefly: p38 MAPKα enzyme inhibition (Method 2), Z-LYTE FRET. The class given is biochemical. The method, then: (§1) The enzyme inhibitory activities of compounds disclosed herein are determined by FRET using synthetic peptides labelled with both donor and acceptor fluorophores (Z-LYTE, Invitrogen Ltd., Paisley, UK).
Chain of p38 MAPKα (Q16539 whole entry, canonical isoform): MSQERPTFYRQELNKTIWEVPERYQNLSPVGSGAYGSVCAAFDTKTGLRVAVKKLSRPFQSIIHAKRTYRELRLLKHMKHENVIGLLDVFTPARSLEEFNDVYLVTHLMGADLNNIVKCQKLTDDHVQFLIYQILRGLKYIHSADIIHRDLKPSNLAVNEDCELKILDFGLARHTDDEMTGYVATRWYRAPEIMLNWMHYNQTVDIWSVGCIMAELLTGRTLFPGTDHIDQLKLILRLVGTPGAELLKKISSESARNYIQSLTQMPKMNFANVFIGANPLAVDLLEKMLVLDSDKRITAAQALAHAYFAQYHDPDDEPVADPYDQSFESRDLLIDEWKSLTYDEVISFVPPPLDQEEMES
The inhibitory activities of test compounds against the p38 MAPKα isoform (MAPK14: Invitrogen), are evaluated indirectly by determining the level of activation/phosphorylation of the down-stream molecule, MAPKAP-K2. The p38 MAPKα protein (80 ng/mL, 2.5 μL) is mixed with the test compound (2.5 μL of either 4 μg/mL, 0.4 μg/mL, 0.04 μg/mL or 0.004 μg/mL) for 2 hr at RT. […] The mixture is incubated for 1 hr at RT. Development reagent (protease, […]) is added for 1 hr prior to detection in a fluorescence microplate reader (Varioskan® Flash, ThermoFisher Scientific).
This method follows the same steps as Method 1 above, but utilises a higher concentration of the p38 MAPKα protein (2.5 μL of 200 ng/mL protein instead of 2.5 μL of 80 ng/mL protein) for mixing with the test compound.
(§2) In all cases, the site-specific protease cleaves non-phosphorylated peptide only and eliminates the FRET signal. Phosphorylation levels of each reaction are calculated using the ratio of coumarin emission (donor) over fluorescein emission (acceptor), for which high ratios indicate high phosphorylation and low ratios indicate low phosphorylation levels. The percentage inhibition of each reaction is calculated relative to non-inhibited control and the 50% inhibitory concentration (IC50 value) is then calculated from the concentration-response curve.

The target of another assay is Syk (Homo sapiens (Human), UniProt P43405). As to the kind of experiment: Syk enzyme inhibition, Z-LYTE FRET. Format: biochemical. The method, then:
as §1
The inhibitory activities of compounds of the invention against c-Src and Syk enzymes (Invitrogen), are evaluated in a similar fashion to that described hereinabove. The relevant enzyme (3000 ng/mL or 2000 ng/mL respectively, 2.5 μL) is incubated with the test compound (either 4 μg/mL, 0.4 μg/mL, 0.04 μg/mL, or 0.004 μg/mL, 2.5 μL each) for 2 hr at RT. The FRET peptides (8 μM. 2.5 μL), and appropriate ATP solutions (2.5 μL, 800 μM for c-Src, and 60 μM ATP for Syk) are then added to the enzymes/compound mixtures and incubated for 1 hr. Development reagent (protease, 5 μL) is added for 1 hr prior to detection in a fluorescence microplate reader (Varioskan® Flash, ThermoFisher Scientific).
as §2

A further assay deals with PBMCs. Briefly: LPS-induced TNFα/IL-8 release in PBMC cells. The class given is cell-based. The note with it: Homo sapiens, LPS-stimulated PBMCs, IL-8, read-out: IC50 Values for Inhibition of Cytokine Release PBMCs IL-8. The method, then: Peripheral blood mononuclear cells (PBMCs) from healthy subjects are separated from whole blood using a density gradient (Lymphoprep, Axis-Shield Healthcare). The PBMCs are seeded in 96 well plates and treated with compounds at the desired concentration for 2 hours before addition of 1 ng/mL LPS (Escherichia Coli 0111:B4 from Sigma Aldrich) for 24 hours under normal tissue culture conditions (37° C., 5% CO2). The supernatant is harvested for determination of IL-8 and TNFα concentrations by sandwich ELISA (Duo-set, R&D systems) and read on the fluorescence microplate reader (Varioskan® Flash, ThermoFisher Scientific). The concentration at 50% inhibition (IC50) of IL-8 and TNFα production is calculated from the dose response curve.

By IC50 is commonly meant the concentration needed to halve the response being measured. Turning to `C#CC(C)(C)c1cc(NC(=O)Nc2ccc(Oc3ccnc(Nc4cc(OC)cc(OCCOCCOCCOC)c4)n3)c3ccccc23)n(-c2ccc(C)cc2)n1` [Example 13, 1-(4-((2-((3-Methoxy-5-(2-(2-(2-methoxyethoxy)ethoxy)ethoxy)phenyl)amino)pyrimidin-4-yl)oxy)naphthalen-1-yl)-3-(3-(2-methylbut-3-yn-2-yl)-1-(p-tolyl)-1H-pyrazol-5-yl)urea], the IC50 against p38 MAPKα worked out at 152 nM; against Syk, 61 nM; in the assay on PBMCs it was 1.7 nM.
The matching figures for `C#CC(C)(C)c1cc(NC(=O)Nc2ccc(Oc3ccnc(Nc4cc(C)c5[nH]ncc5c4)n3)c3ccccc23)n(-c2ccc(C)cc2)n1` [Example 2, 1-(4-((2-((7-Methyl-1H-indazol-5-yl)amino)pyrimidin-4-yl)oxy)naphthalen-1-yl)-3-(3-(2-methylbut-3-yn-2-yl)-1-(p-tolyl)-1H-pyrazol-5-yl)urea]: 380 nM, 50 nM and 2 nM.
